Laboratory results: patent US20180354909A1, “SUBSTITUTED BENZIMIDAZOLIUM, PYRIDO-IMIDAZOLIUM, OR PYRAZINO-IMIDAZOLIUM COMPOUNDS AS CHEMOTHERAPEUTICS” (The Board of Regents of the University of Texas System, priority 2015, published 2018)

System: Mut6
Assay: Cytotox testing (CellTiter-Glo ATP assay) in Mut6 cells
Type: cell-based, mouse
Settings: Mus musculus, 96 h, Mut6 cells, 4 days, CellTiter-Glo; read-out: Activity in Mut6 [EC50]
Procedure: Mut6 tumor cells were cultured in DMEM/F12 media supplemented by EGF (10 ng/mL), basic FGF (10 ng/mL), heparin (4 ug/mL), glucose (total 21 mM), NaHCO3 (113 μg/mL), Hepes (119 μg/mL), glutamine (2 mM), sodium pyruvate (1 mM), N2 supplement (ThermoFisher Gibco 17502-048, 100×, at 100-fold dilution), B27 supplement (ThermoFisher Gibco 12587-010, 50×, at 100-fold dilution), and penicillin/streptomycin (ThermoFisher, final 1%). Cells were maintained in Ultra-low attachment plate (Corning) as sphere-forming cells. For ATP assays and protein/RNA isolation, cells were plated into 96-well plates or 6-well plated that were coated with poly-lysine (Sigma P6407, 10 μg/mL in PBS, 4 hr at 37° C.) and laminin (ThermoFisher 23017015, ˜5 mg/L in PBS, overnight at 37° C.). MEFs and Astrocytes were cultured in DMEM supplemented with 10% FBS and 1% Penicillin/Streptomycin.
2,000 cells were plated into each well of 96-well plates. About 3 hours later, cells were treated by 12M11, at 800-fold dilution (4 mM stock was diluted into 5 μM final concentration). […] CellTiter-Glo assay (Promega) was performed according to manufacturer's instructions, by adding 20 μL of reagent into each well. Luminescence signal was detected by the PolarStar plate reader (BMG Labtech). Experiments were performed in quadruplicate, and results are presented with mean average −/+ standard deviation. EC505 were calculated by GraphPad Prism6 software.
The compounds described herein were tested using a cell-based cytotoxicity assay against neuronal stem cells in Mut6, which is a mouse glioblastoma model cell line.

SMILES | EC50
CCc1n(CC(=O)Oc2ccccc2)c2ccccc2[n+]1C | > 5 µM
COc1ccc(-c2n([C@H](C)C(=O)OC3C[C@H](C)CC[C@H]3C(C)C)c3ccccc3[n+]2C)cc1 (some centres unmarked) | < 0.1 µM
CC(C)[C@@H]1CC[C@@H](C)CC1OC(=O)Cn1c(-c2ccc(C(F)(F)F)cc2)[n+](C)c2ccccc21 (some centres unmarked) | 0.1 to 1 µM
CC[n+]1c(-c2ccc(N(C)C)cc2)n(CC(=O)OC2C[C@H](C)CC[C@H]2C(C)C)c2ccccc21 (some centres unmarked) | < 0.1 µM
COC(=O)Cn1c(/C=C/c2ccccc2)nc2ccccc21 | > 5 µM
COC(=O)Cn1c(-c2ccc(F)cc2)nc2ccccc21 | > 5 µM
CCc1n(CC(=O)OC2C[C@H](C)CC[C@H]2C(C)C)c2ccc([N+](=O)[O-])cc2[n+]1C (some centres unmarked) | 1 to 5 µM
COC(=O)Cn1c(-c2ccc(N(C)C)cc2)nc2ccccc21 | > 5 µM
CCc1n(CC(=O)OC2C[C@H](C)CC[C@H]2C(C)C)c2cc(OC)ccc2[n+]1C (some centres unmarked) | < 0.1 µM
CCc1n(CC(=O)O[C@H]2C[C@@H](C)CC[C@@H]2C(C)C)c2ccccc2[n+]1C | 0.1 to 1 µM
CC(C)[C@@H]1CC[C@@H](C)CC1OC(=O)[C@@H](C)n1c(-c2ccc(N(C)C)cc2)[n+](C)c2ccccc21 (some centres unmarked) | < 0.1 µM
CCN(CC)c1ccc(-c2n([C@H](C)C(=O)OC3C[C@H](C)CC[C@H]3C(C)C)c3ccccc3[n+]2C)cc1 (some centres unmarked) | < 0.1 µM
C#CCN(CC(=O)Oc1ccc(-c2n(CC(=O)OC3C[C@H](C)CC[C@H]3C(C)C)c3ccccc3[n+]2C)cc1)Cc1ccc(C2(C(F)(F)F)N=N2)cc1 (some centres unmarked) | 1 to 5 µM
CC(C)[C@@H]1CC[C@@H](C)CC1OC(=O)[C@@H](C1CC1)n1c(-c2ccc(N(C3CC3)C3CC3)cc2)[n+](C)c2ccccc21 (some centres unmarked) | < 0.1 µM
CCc1n(CC(=O)OC2C[C@H](C)CC[C@H]2C(C)C)c2ccc(F)cc2[n+]1C (some centres unmarked) | 0.1 to 1 µM
CCc1n([C@H](Cc2ccc(O)cc2)C(=O)OC2C[C@H](C)CC[C@H]2C(C)C)c2ccccc2[n+]1C (some centres unmarked) | 1 to 5 µM
CC(C)[C@@H]1CC[C@@H](C)CC1OC(=O)Cn1c(-c2ccc(OC(C)(C)C)cc2)[n+](C)c2ccccc21 (some centres unmarked) | < 0.1 µM
CCc1n(CC(=O)OC2C[C@H](C)CC[C@H]2C(C)C)c2cccnc2[n+]1C (some centres unmarked) | 0.1 to 1 µM
CC(C)[C@@H]1CC[C@@H](C)CC1OC(=O)Cn1c(-c2ccc(N(C)C)cc2)[n+](Cc2ccccc2)c2ccccc21 (some centres unmarked) | < 0.1 µM
CCc1n(CC(=O)OC2C[C@H](C)CC[C@H]2C(C)C)c2ccccc2[n+]1C (some centres unmarked) | < 0.1 µM
CC(C)[C@@H]1CC[C@@H](C)CC1OC(=O)Cn1c(-c2ccc(O)cc2)nc2ccccc21 (some centres unmarked) | > 5 µM
Cc1cc(-c2n([C@@H](C(=O)OC3C[C@H](C)CC[C@H]3C(C)C)C3CC3)c3ccccc3[n+]2C)ccc1N(C)C (some centres unmarked) | < 0.1 µM
CCc1n(CC(=O)OC(C)(C)C)c2ccccc2[n+]1C | > 5 µM
CCN(CC)c1ccc(-c2n([C@@H](C(=O)OC3C[C@H](C)CC[C@H]3C(C)C)C3CC3)c3ccccc3[n+]2C)cc1 (some centres unmarked) | < 0.1 µM
CC(C)[C@@H]1CC[C@@H](C)CC1OC(=O)[C@@H](C1CC1)n1c(-c2ccc(N(C)C)c(C(F)(F)F)c2)[n+](C)c2ccccc21 (some centres unmarked) | 0.1 to 1 µM
CCc1n([C@H](C)C(=O)OC2C[C@H](C)CC[C@H]2C(C)C)c2ccccc2[n+]1C (some centres unmarked) | < 0.1 µM

SMILES | EC50
CCc1n([C@@H](C(=O)OC2C[C@H](C)CC[C@H]2C(C)C)C2CC2)c2ccccc2[n+]1C (some centres unmarked) | < 0.1 µM
COC(=O)Cn1c(-c2ccco2)nc2ccccc21 | > 5 µM
CCc1n(CC(=O)OC2C[C@H](C)CC[C@H]2C(C)C)c2ccc(C#N)cc2[n+]1C (some centres unmarked) | 1 to 5 µM
CCc1n([C@@H](C)C(=O)OC2C[C@H](C)CC[C@H]2C(C)C)c2ccccc2[n+]1C (some centres unmarked) | < 0.1 µM
CC(C)[C@@H]1CC[C@@H](C)CC1OC(=O)[C@@H](C)n1c(-c2ccc(N(C)C)c(C(F)(F)F)c2)[n+](C)c2ccccc21 (some centres unmarked) | < 0.1 µM
CCc1n(CC(=O)OC2C[C@H](C)CC[C@H]2C(C)C)c2cc(Br)ccc2[n+]1C (some centres unmarked) | 0.1 to 1 µM
CC(C)[C@@H]1CC[C@@H](C)CC1OC(=O)Cn1c(-c2ccccc2)nc2ccccc21 (some centres unmarked) | > 5 µM
CC(C)[C@@H]1CC[C@@H](C)CC1OC(=O)Cn1c(-c2ccc(N=[N+]=[N-])cc2)nc2ccccc21 (some centres unmarked) | > 5 µM
CCc1n([C@H](Cc2ccc(C)cc2)C(=O)OC2C[C@H](C)CC[C@H]2C(C)C)c2ccccc2[n+]1C (some centres unmarked) | < 0.1 µM
CCc1n(CC(=O)OC2C[C@H](C)CC[C@H]2C(C)C)c2ccc(Cl)cc2[n+]1C (some centres unmarked) | 0.1 to 1 µM
COC(=O)Cn1c(-c2ccc(C)cc2)nc2ccccc21 | > 5 µM
COC(=O)Cn1c(-c2ccccn2)nc2ccccc21 | > 5 µM
CC(C)[C@@H]1CC[C@@H](C)CC1OC(=O)[C@@H](C)n1c(-c2ccc(C(F)(F)F)cc2)[n+](C)c2ccccc21 (some centres unmarked) | 0.1 to 1 µM
CC(C)[C@@H]1CC[C@@H](C)CC1OC(=O)Cn1c(-c2ccc(N(C)C)cc2)[n+](CC2CC2)c2ccccc21 (some centres unmarked) | < 0.1 µM
CC(C)[C@@H]1CC[C@@H](C)CC1OC(=O)Cn1c(-c2ccc(Cl)c(Cl)c2)[n+](C)c2ccccc21 (some centres unmarked) | 0.1 to 1 µM
CCCCN(CCCC)c1ccc(-c2n([C@H](C)C(=O)OC3C[C@H](C)CC[C@H]3C(C)C)c3ccccc3[n+]2C)cc1 (some centres unmarked) | < 0.1 µM
CC(C)[C@@H]1CC[C@@H](C)CC1OC(=O)Cn1c(-c2cccc(Br)c2)nc2ccccc21 (some centres unmarked) | > 5 µM
CC(C)[C@@H]1CC[C@@H](C)CC1OC(=O)Cn1c(-c2ccc(Cl)c(C(F)(F)F)c2)[n+](C)c2ccccc21 (some centres unmarked) | 0.1 to 1 µM
CCc1n([C@@H](C(=O)OC2C[C@H](C)CC[C@H]2C(C)C)C(C)(C)C)c2ccccc2[n+]1C (some centres unmarked) | 0.1 to 1 µM
CCc1n(CC(=O)OC2C[C@H](C)CC[C@H]2C(C)C)c2ccncc2[n+]1C (some centres unmarked) | 0.1 to 1 µM
CCc1n(CC(=O)OC23CC4CC(CC(C4)C2)C3)c2ccccc2[n+]1C | 1 to 5 µM
C#CCCOC(=O)Cn1c(CC)[n+](C)c2ccccc21 | > 5 µM
COC(=O)Cn1c(-c2cccc(F)c2)nc2ccccc21 | > 5 µM
CC(C)[C@@H]1CC[C@@H](C)CC1OC(=O)[C@@H](C)n1c(-c2ccc(N(C3CC3)C3CC3)cc2)[n+](C)c2ccccc21 (some centres unmarked) | < 0.1 µM
CCCCN(CCCC)c1ccc(-c2n([C@@H](C(=O)OC3C[C@H](C)CC[C@H]3C(C)C)C3CC3)c3ccccc3[n+]2C)cc1 (some centres unmarked) | < 0.1 µM
C/C=C/c1n(CC(=O)OC2C[C@H](C)CC[C@H]2C(C)C)c2ccccc2[n+]1C (some centres unmarked) | 1 to 5 µM

SMILES | EC50
CCc1n(CC(=O)OCCOC)c2ccccc2[n+]1C | > 5 µM
COC(=O)Cn1c(-c2ccc(SC)cc2)nc2ccccc21 | > 5 µM
CC(C)[C@@H]1CC[C@@H](C)CC1OC(=O)Cn1c(-c2ccc(F)cc2)[n+](C)c2ccccc21 (some centres unmarked) | 0.1 to 1 µM
CC(C)[C@@H]1CC[C@@H](C)CC1OC(=O)Cn1c(-c2ccc(Br)cc2)[n+](C)c2ccccc21 (some centres unmarked) | 0.1 to 1 µM
CC(C)[C@@H]1CC[C@@H](C)CC1OC(=O)Cn1c(-c2ccc(Cl)cc2)[n+](C)c2ccccc21 (some centres unmarked) | 0.1 to 1 µM
CC(C)[C@@H]1CC[C@@H](C)CC1OC(=O)Cn1c(-c2cccc(C#N)c2)[n+](C)c2ccccc21 (some centres unmarked) | > 5 µM
CCc1n(CC(=O)OC2C[C@H](C)CC[C@H]2C(C)C)c2cc(C(F)(F)F)ccc2[n+]1C (some centres unmarked) | 1 to 5 µM
CC(C)[C@@H]1CC[C@@H](C)CC1OC(=O)[C@@H](C1CC1)n1c(-c2ccc(C(F)(F)F)cc2)[n+](C)c2ccccc21 (some centres unmarked) | 0.1 to 1 µM
CCc1n(CC(=O)OC2C[C@H](C)CC[C@H]2C(C)C)c2cc(C#N)ccc2[n+]1C (some centres unmarked) | 1 to 5 µM
CCc1n(CC(=O)OC2C[C@H](C)CC[C@H]2C(C)C)c2cc(C)ccc2[n+]1C (some centres unmarked) | < 0.1 µM
COC(=O)Cn1c(C)nc2ccccc21 | > 5 µM
CCc1n(CC(=O)O[C@H]2CC[C@@H](C)CC2)c2ccccc2[n+]1C | > 5 µM
CCc1n(CC(=O)OC2C[C@H](C)CC[C@H]2C(C)C)c2cc(F)ccc2[n+]1C (some centres unmarked) | < 0.1 µM
CCc1n([C@H](C)C(=O)OC2C[C@@H](C)CC[C@@H]2C(C)C)c2ccccc2[n+]1C (some centres unmarked) | < 0.1 µM
CC(C)[C@@H]1CC[C@@H](C)CC1OC(=O)Cn1c(-c2ccc(C(C)(C)C)cc2)[n+](C)c2ccccc21 (some centres unmarked) | < 0.1 µM
C#CC[n+]1c(-c2ccc(N(C)C)cc2)n(CC(=O)OC2C[C@H](C)CC[C@H]2C(C)C)c2ccccc21 (some centres unmarked) | < 0.1 µM
COC(=O)Cn1c(-c2ccccc2)nc2ccccc21 | > 5 µM
CC(C)[C@@H]1CC[C@@H](C)CC1OC(=O)Cn1c(-c2ccc(OC(=O)CCCCC3SC[C@H]4NC(=O)N[C@@H]34)cc2)[n+](C)c2ccccc21 (some centres unmarked) | 1 to 5 µM
CCc1n(CC(=O)O[C@H]2CC[C@H](C)CC2)c2ccccc2[n+]1C | > 5 µM
CC(C)[C@@H]1CC[C@@H](C)CC1OC(=O)Cn1c(-c2cccc(Cl)c2)[n+](C)c2ccccc21 (some centres unmarked) | 0.1 to 1 µM
CCc1n([C@@H](C(=O)OC2C[C@H](C)CC[C@H]2C(C)C)C2CCCC2)c2ccccc2[n+]1C (some centres unmarked) | < 0.1 µM
C=CC[n+]1c(-c2ccc(N(C)C)cc2)n(CC(=O)OC2C[C@H](C)CC[C@H]2C(C)C)c2ccccc21 (some centres unmarked) | < 0.1 µM
CCc1n(CC(=O)OC2C[C@H](C)CC[C@H]2C(C)C)c2ncccc2[n+]1C (some centres unmarked) | 0.1 to 1 µM
CCc1n(CC(=O)OC)c2ccccc2[n+]1C | > 5 µM
C#CCOc1ccc(-c2n(CC(=O)OC3C[C@H](C)CC[C@H]3C(C)C)c3ccccc3[n+]2C)cc1N=[N+]=[N-] (some centres unmarked) | 0.1 to 1 µM
